Patent publication US9096615B2, “Bridged bicyclic amino thiazine dioxide compounds as inhibitors of beta-secretase and methods of use thereof” (AMGEN INC., priority 2013, dated 2015)
Where two headings read alike, the source gives them in different places.

Experiments:
[1] = test system: Aβ40 in conditioned medium of cells stably expressing Amyloid Precursor Protein (APP); assay: In vitro BACE cell-based assay (HEK cell assay, Aβ40 sandwich ELISA); conditions: Homo sapiens, HEK293
Outline: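 IC50 was derived from percent-of-control Aβ40 against concentration, with Aβ40 quantified by time-resolved fluorescence ELISA (pAb40/6E10-biotin, 4 °C incubations). Supernatants were sampled after 24 h of compound exposure (10 points, starting 100 or 10 μM, 0.1% DMSO) of cells stably expressing APP.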

BACE1 = BACE1 (Homo sapiens, UniProt P56817); assay: In vitro enzymatic BACE FRET assay; format: biochemical
BACE1, sequence (P56817 46-501, species assumed): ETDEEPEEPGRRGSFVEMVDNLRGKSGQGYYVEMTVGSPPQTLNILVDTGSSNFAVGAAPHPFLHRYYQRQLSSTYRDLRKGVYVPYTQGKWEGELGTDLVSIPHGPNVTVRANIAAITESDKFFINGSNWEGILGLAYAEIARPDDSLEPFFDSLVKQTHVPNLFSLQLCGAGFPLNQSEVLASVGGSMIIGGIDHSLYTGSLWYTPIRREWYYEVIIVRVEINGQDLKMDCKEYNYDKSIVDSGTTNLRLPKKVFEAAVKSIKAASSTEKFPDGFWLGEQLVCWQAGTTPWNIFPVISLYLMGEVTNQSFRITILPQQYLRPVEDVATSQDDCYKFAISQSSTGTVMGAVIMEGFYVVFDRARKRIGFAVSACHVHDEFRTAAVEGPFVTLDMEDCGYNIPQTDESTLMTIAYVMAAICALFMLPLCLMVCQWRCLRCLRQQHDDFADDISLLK
Outline: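 Fluorescence (excitation 488 nm, […]) from cleavage of quenched peptide substrate (50 nM), reaction run 1 h after 1 h enzyme–inhibitor pre-incubation, then neutralised with Tris. Conditions: 0.2 nM enzyme, pH 4.2 acetate 0.05 M, 10% DMSO final, 100 uM genapol.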

Abeta 40 = assay: In vivo inhibition of beta-secretase: percent Abeta 40 reduction in CSF and brain; set-up: species or system rat; conditions: 10 mpk, after 4 hrs
Excerpt: In Vivo Inhibition of Beta-Secretase
Several animal models, including mouse, rat, dog, and monkey, may be used to screen for inhibition of beta-secretase activity in vivo following administration of a test compound sample. Animals used in this invention can be wild type, transgenic, or gene knockout animals. For example, the Tg2576 mouse model, prepared and conducted as described in Hsiao et al., 1996, Science 274, 99-102, and other non-transgenic or gene knockout animals are useful to analyze in vivo inhibition of Amyloid beta peptide (Abeta) production in the presence of inhibitory test compounds. Generally, 2 to 18 month old Tg2576 mice, gene knockout mice or non-transgenic animals are administered test compounds formulated in vehicles, such as cyclodextran, phosphate buffers, hydroxypropyl methylcellulose or other suitable vehicles. One to twenty-four hours following the administration of compound, animals are sacrificed, and brains as well as cerebrospinal fluid (CSF) and plasma are removed for analysis of A-beta levels and drug or test compound concentrations (Dovey et al., 2001, Journal of Neurochemistry, 76, 173-181) Beginning at time 0, animals are administered by oral gavage, or other means of delivery such as intravenous injection, an inhibitory test compound of up to 100 mg/kg in a standard, conventional formulation, such as 2% hydroxypropyl methylcellulose, 1% Tween80. A separate group of animals receive 2% hydroxypropyl methylcellulose, 1% Tween80 alone, containing no test compound, and serve as a vehicle-control group. At the end of the test period, animals are sacrificed and brain tissues, plasma or cerebrospinal fluid are collected. Brains are either homogenized in 10 volumes (w/v) of 0.2% diethylamine (DEA) in 50 mM NaCl (Best et al., 2005, Journal of Pharmacology and Experimental Therapeutics, 313, 902-908), or in 10 volumes of 0.5% TritonX-100 in Tris-buffered saline (pH at about 7.6). Homogenates are centrifuged at 355,000 g, 4° C. for 30 minutes. CSF or brain supernatants are then analyzed for the presence of A-beta peptide by specific sandwich ELISA assays based on ECL (Electrochemiluminescence) technology. For example, rat Abeta40 is measured using biotinylated-4G8 (Signet) as a capture antibody and Fab40 (an in-house antibody specific to the C-terminal of Abeta40) as a detection antibody. For example, 4 hours after administration of 30 mg/kg oral dose of the test compound in 2% hydroxypropyl methylcellulose, 1% Tween80 (pH2.2) to 200 g male Sprague Dawley rats, amyloid beta peptide levels are measured for reduction by X % and Y % in cerebrospinal fluid and brain, respectively, when compared to the levels measured in the vehicle-treated or control […].
Actual vehicles used: Oral: 2% HPMC, 1% Tween80, pH 2.2
• IV: 5% EtOH, 45% Propylene glycol in 5% Dextrose
The compounds of the invention may be shown to reduce the formation and/or deposition of amyloid beta peptide in the cerebrospinal fluid (CSF) as well as in the brain of a mouse or rat at either 3 mpk, 10 mpk or 30 mpk (mpk=mg compound per kg weight of the animal) dosing concentrations after 4 hrs.

Cathepsin D (Cat D) = molecular target: T1, Cathepsin D (Cat D) (Homo sapiens, UniProt P07339); assay: In vitro enzymatic Cathepsin D (Cat D) FRET assay; format: biochemical; conditions: read-out: CatD IC50
T1 construct: made in house; host or cells: CHO cells
T1 sequence (P07339 65-412, species assumed): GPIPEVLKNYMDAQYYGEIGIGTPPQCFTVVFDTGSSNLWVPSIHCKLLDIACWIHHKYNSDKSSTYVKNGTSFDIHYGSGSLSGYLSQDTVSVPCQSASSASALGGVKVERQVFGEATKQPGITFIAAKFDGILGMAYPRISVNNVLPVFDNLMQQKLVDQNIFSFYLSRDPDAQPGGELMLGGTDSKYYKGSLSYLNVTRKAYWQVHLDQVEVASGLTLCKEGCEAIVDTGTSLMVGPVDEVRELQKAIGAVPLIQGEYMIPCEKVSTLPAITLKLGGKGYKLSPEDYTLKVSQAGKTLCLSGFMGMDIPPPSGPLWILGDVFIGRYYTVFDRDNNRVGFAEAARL
Outline: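 Fluorescence (500 nm excitation, 580 nm emission) was measured after Tris quench of a 1 h cleavage of 20 nM quenched peptide substrate. Before that, 9 nM CHO-expressed human Cat D sat with compound for 1 h at pH 3.5 (0.05 M citrate, 5 mM CHAPS, 10% DMSO final).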

[2] = average IC50, read-out: BACE1 cell assay IC50
[3] = average IC50, read-out: BACE1 Enzyme assay IC50
[4] = Abeta 40, rat CSF, read-out: % reduction of rat CSF levels at 10 pmk
[5] = Abeta 40, rat brain, read-out: % reduction of rat brain levels at 10 mpk
[6] = Aβ40, 24 h incubation, read-out: HEK cell assay IC50
[7] = read-out: BACE1 FRET assay IC50

Row | SMILES | IC50 [1, 2] [µM] | IC50 (BACE1; [3]) [µM] | IC50 (Cathepsin D (Cat D); average IC50, first procedure) [µM] | IC50 [1, 6] [µM] | IC50 (BACE1; [7]) [µM] | IC50 (Cathepsin D (Cat D)) [µM] | inhibition in vivo at 10 mg/kg (Abeta 40; [4]) [%] | inhibition in vivo at 10 mg/kg (Abeta 40; [5]) [%]
1 | C[C@]1(c2cc(Nc3ncnc4cc(Cl)cnc34)ccc2F)N=C(N)[C@@]2(CF)CC[C@@H]1S2(=O)=O [Example 98, N-(3-((1S,2R,5R)-4-amino-5-(fluoromethyl)-2-methyl-8,8-dioxido-8-thia-3-azabicyclo[3.2.1]oct-3-en-2-yl)-4-fluorophenyl)-7-chloropyrido[3,2-d]pyrimidin-4-amine] | 0.015 | 0.005 | 286 |  |  |  | 70 | 74
2 | Cc1cc(C(F)(F)F)cnc1C(=O)Nc1ccc(F)c([C@@]2(C)N=C(N)[C@@]3(C)CC[C@@H]2S3(=O)=O)c1 [Example 24, N-(3-((1S,2R,5R)-4-Amino-2,5-dimethyl-8,8-dioxido-8-thia-3-azabicyclo[3.2.1]oct-3-en-2-yl)-4-fluorophenyl)-3-methyl-5-(trifluoromethyl)picolinamide] |  |  |  | 0.001 | 0.005 | 591 | 72 | 62
3 | C[C@]1(c2cc(N)ccc2F)N=C(N)[C@@]2(C)CC[C@@H]1S2(=O)=O [Example 35, (1R,4R,5S)-4-(5-amino-2-fluorophenyl)-1,4-dimethyl-8-thia-3-azabicyclo[3.2.1]oct-2-en-2-amine 8,8-dioxide] |  |  |  | 5.81 | 10.1 | 287 | 52 | 46
4 | COc1cnc(C(=O)Nc2ccc(F)c([C@@]3(C)N=C(N)[C@@]4(C)CC[C@@H]3S4(=O)=O)c2)c(C)n1 [Example 79, N-(3-((1S,2R,5R)-4-amino-2,5-dimethyl-8,8-dioxido-8-thia-3-azabicyclo[3.2.1]oct-3-en-2-yl)-4-fluorophenyl)-5-methoxy-3-methyl-2-pyrazinecarboxamide] | 0.003 | 0.009 | 1830 |  |  |  | 71 | 62
5 | Cc1cc(Cl)cnc1C(=O)Nc1ccc(F)c([C@@]2(C)N=C(N)[C@@]3(C)CC[C@@H]2S3(=O)=O)c1 [Example 22, N-(3-((1S,2R,5R)-4-Amino-2,5-dimethyl-8,8-dioxido-8-thia-3-azabicyclo[3.2.1]oct-3-en-2-yl)-4-fluorophenyl)-5-chloro-3-methylpicolinamide] |  |  |  | 0.002 | 0.002 | 1740 | 76 | 66
6 | Cc1cc(C(F)(F)F)cnc1C(=O)Nc1ccc(F)c([C@@]2(C)N=C(N)[C@@]3(CF)CC[C@@H]2S3(=O)=O)c1 [Example 92, N-(3-((1S,2R,5R)-4-amino-5-(fluoromethyl)-2-methyl-8,8-dioxido-8-thia-3-azabicyclo[3.2.1]oct-3-en-2-yl)-4-fluorophenyl)-3-methyl-5-(trifluoromethyl)-2-pyridinecarboxamide] | 0.005 | 0.004 | 789 |  |  |  | 73 | 67
7 | CC#Cc1ccc(C(=O)Nc2ccc(F)c([C@@]3(C)N=C(N)[C@@]4(C)CC[C@@H]3S4(=O)=O)c2)nc1 [Example 69, N-(3-((1S,2R,5R)-4-amino-2,5-dimethyl-8,8-dioxido-8-thia-3-azabicyclo[3.2.1]oct-3-en-2-yl)-4-fluorophenyl)-5-(1-propyn-1-yl)-2-pyridinecarboxamide] | 0.003 | 0.002 | > 400 |  |  |  | 42 | 9
8 | Cc1cc(OC(F)F)cnc1C(=O)Nc1ccc(F)c([C@@]2(C)N=C(N)[C@@H]3CCC[C@H]2S3(=O)=O)c1 [Example 18, N-(3-((1R,2R,5S)-4-Amino-2-methyl-9,9-dioxido-9-thia-3-azabicyclo[3.3.1]non-3-en-2-yl)-4-fluorophenyl)-5-(difluoromethoxy)-3-methylpicolinamide] |  |  |  | 0.018 | 0.043 | 690 |  | 

The next lines start with results.

Row | IC50 [1, 2] [µM] | IC50 (BACE1; [3]) [µM] | IC50 (Cathepsin D (Cat D); average IC50, first procedure) [µM] | IC50 [1, 6] [µM] | IC50 (BACE1; [7]) [µM] | IC50 (Cathepsin D (Cat D)) [µM] | SMILES | inhibition in vivo at 10 mg/kg (Abeta 40; [4]) [%] | inhibition in vivo at 10 mg/kg (Abeta 40; [5]) [%]
9 | 0.007 | 0.017 | 1040 |  |  |  | C[C@]1(c2cc(NC(=O)c3cnc(C(F)F)cn3)ccc2F)N=C(N)[C@@]2(CF)CC[C@@H]1S2(=O)=O [Example 109, N-(3-((1S,2R,5R)-4-amino-5-(fluoromethyl)-2-methyl-8,8-dioxido-8-thia-3-azabicyclo[3.2.1]oct-3-en-2-yl)-4-fluorophenyl)-5-(difluoromethyl)-2-pyrazinecarboxamide] | 70 | 57
10 | 0.018 | 0.01 | 185 |  |  |  | C[C@]1(c2cc(Nc3ncnc4cc(C(F)(F)F)cnc34)ccc2F)N=C(N)[C@@]2(CF)CC[C@@H]1S2(=O)=O [Example 107, N-(3-((1S,2R,5R)-4-amino-5-(fluoromethyl)-2-methyl-8,8-dioxido-8-thia-3-azabicyclo[3.2.1]oct-3-en-2-yl)-4-fluorophenyl)-7-(trifluoromethyl)pyrido[3,2-d]pyrimidin-4-amine] | 53 | 43
11 | 0.001 | 0.001 | 417 |  |  |  | Cc1cnc(COc2cnc3c(Nc4ccc(F)c([C@@]5(C)N=C(N)[C@@]6(C)CC[C@@H]5S6(=O)=O)c4)nccc3n2)o1 [Example 146, N-(3-((1S,2R,5R)-4-amino-2,5-dimethyl-8,8-dioxido-8-thia-3-azabicyclo[3.2.1]oct-3-en-2-yl)-4-fluorophenyl)-2-((5-methyl-1,3-oxazol-2-yl)methoxy)pyrido[3,4-b]pyrazin-5-amine] | 35 | 13
12 | 0.004 | 0.002 | 926 |  |  |  | C[C@]1(c2cc(NC(=O)c3ncc(Cl)cc3Cl)ccc2F)N=C(N)[C@@]2(CF)CC[C@@H]1S2(=O)=O [Example 105, N-(3-((1S,2R,5R)-4-amino-5-(fluoromethyl)-2-methyl-8,8-dioxido-8-thia-3-azabicyclo[3.2.1]oct-3-en-2-yl)-4-fluorophenyl)-3,5-dichloro-2-pyridinecarboxamide] | 74 | 71
13 | 0.007 | 0.009 | 891 |  |  |  | Cc1cc(C(F)F)cnc1C(=O)Nc1ccc(F)c([C@@]2(C)N=C(N)[C@@]3(CF)CC[C@@H]2S3(=O)=O)c1 [Example 103, N-(3-((1S,2R,5R)-4-amino-5-(fluoromethyl)-2-methyl-8,8-dioxido-8-thia-3-azabicyclo[3.2.1]oct-3-en-2-yl)-4-fluorophenyl)-5-(difluoromethyl)-3-methyl-2-pyridinecarboxamide] | 62 | 58
